{"source": "patent US20030036518A1", "about": "“ARTIFICIAL POLYMERIC MEMBRANE STRUCTURE, METHOD FOR PREPARING SAME, METHOD FOR PREPARING THIS POLYMER, PARTICLE AND FILM CONTAINING THIS STRUCTURE” (priority 1996, published 2003)", "assay_type_in_all_cases": "physicochemical", "key": {"[1]": {"experiment": "Association of doxorubicin with small-size porous particles", "settings": "5 mg doxorubicin, 5 mg small-size porous particles, 2 h", "description": "The procedure was as in example 10, but an attempt was made to prepare smaller sized porous particles. 1 g of SEPHADEX® C25 porous matrix was dispersed in 100 ml of distilled water and the preparation was ground for 15 min with a helical mill. The preparation was then centrifuged at 3000 g for 10 min and the supernatant was recovered and then subjected to further centrifuging at 25000 g for 45 min. The supernatant was removed, the cake was put back into suspension and 50 mg of a dry product were obtained following freeze-drying. The size of the particles obtained, measured by a particle analyzer, was between 300 and 500 nm.\n5 mg of these small-size porous particles were dispersed in 5 ml of distilled water. 5 mg of doxorubicin were added and the whole was stirred for 2 h. The concentration of doxorubicin not associated with the particles was determined by ultrafiltration of an aliquot of the suspension through an ultrafiltration membrane of which the separation threshold was 50000, and the concentration of free doxorubicin was measured by UV spectrometry at 480 nm. […] These were then used as they were without supplementary purification."}, "[2]": {"experiment": "Association of doxorubicin with porous particles", "settings": "5 mg doxorubicin hydrochloride, 5 mg SEPHADEX® C25, 2 h at 4° C.", "description": "The overall procedure was as in example 7, but incorporating doxorubicin (C27H29NO11,PM543, 53) in place of haemoglobin, 5 mg of doxorubicin hydrochloride being dissolved in 1 ml of distilled water and incubated with 5 mg of porous particles (SEPHADEX® C25) substituted with carboxymethyl groups. The pore size of the particles was such that molecules with a maximum molecular weight of 25000 could penetrate. The suspension was stirred for 2 h at 4° C. with a planetary stirrer. It was then decanted and the free doxorubicin concentration was measured by UV spectrophotometry at 480 nm. […] The non-absorbed doxorubicin fraction was removed by decanting and washing the cake with distilled water."}, "[3]": {"experiment": "Absorption of haemoglobin on the porous substrate", "settings": "20 mg haemoglobin, 5 mg SEPHADEX® SPC50, pH 6.5, 24 h at 4° C.", "description": "5 mg of porous particles (SEPHADEX® SPC50) with a diameter of 150 μm substituted with sulfopropyl groups and having a pore size sufficient to allow the penetration of molecules with a maximum molecular weight of 250000, were dispersed in 5 ml of a 10 mM bi-tri buffer, of pH 6.5 (where the haemoglobin is cationic and is attracted inside the anionic sites of the porous particles). 20 mg of haemoglobin, extracted from human erythrocytes by the lysis method in a hypotonic medium, were then added to this dispersion. The preparation was stirred for 24 h at 4° C. on a planetary stirrer. The particles were then decanted and the quantity present in the supernatant was determined by UV spectrometry at 410 nm. […] The non-absorbed haemoglobin was removed by decanting the particles and washing them with a 10 mM bi-tri buffer."}}, "data": [{"compound": "COc1cccc2c1C(=O)c1c(O)c3c(c(O)c1C2=O)C[C@@](O)(C(=O)CO)C[C@@H]3O[C@H]1C[C@H](N)[C@H](O)[C@H](C)O1", "note": "[doxorubicin]", "values": [{"measurement": "doxorubicin associated with the particles", "setting": "[1]", "value": "more than 98%"}, {"measurement": "doxorubicin associated with the particles", "setting": "[2]", "value": "more than 97%"}]}, {"compound": "haemoglobin: haemoglobin extracted from human erythrocytes by the lysis method in a hypotonic medium", "values": [{"measurement": "haemoglobin present inside the particles", "setting": "[3]", "value": "more than 98%"}]}]}
